Patent US20120245229A1, “METHOD FOR TREATING NEUROPATHIC PAIN” (priority 2009, published 2012)

How the values were obtained:
[1] = tested on: CFA-induced mechanical allodynia; assay: CFA-induced mechanical allodynia (von Frey paw withdrawal threshold); format: in vivo, mice; details: intrathecal RvE1 3-100 ng, 3 d after CFA injection
Protocol: Animals and pain models. Adult CD1 mice (male, 25-32 g) were used for most experiments. Knockout mice were used lacking TNFR1/II (Tnfrsf1a/1b^−/−) and TRPV1 (Trpv1^−/−) and C57BL/6 wild-type control mice, all from Jackson, for some experiments. All animal procedures performed in this study were approved by the Harvard Medical Area Standing Committee on Animals. 20 μl of diluted formalin (5%), carrageenan (CRG, 1%), or complete Freund's adjuvant (CFA) were injected into the plantar surface of a hindpaw to produce acute, persistent, or chronic inflammatory pain, respectively. Postoperative pain was also produced through hindpaw incision^36 and neuropathic pain by ligation of the spinal nerve^37.
Behavioral analysis. Mice were habituated in the testing environment for two days and performed behavioral testing in a blinded manner. Formalin-evoked spontaneous inflammatory pain was assessed by measuring duration (seconds) animals spent on licking/flinching the affected paws every 5 min for 45 min. Capsaicin-induced spontaneous pain was aslo assessed for 10 min. […] It was determined the 50% paw withdrawal threshold using Dixon's up-down method^40. […] The percent maximal possible antinociceptive effect (% M.P.E) was calculated using the equation % M.P.E.=[(PL−BL2)/(BL1−BL2)]×100. […]

[2] = tested on: glutamate NMDA receptors (NMDARs); assay: NMDA-induced currents in dorsal horn (lamina II) neurons of spinal cord slices; format: cell-based, mice; details: NMDA 50 μM; TNF-α 10 ng/ml; PD98059 1 μM, U0126 1 μM, capsazepine 10 μM
Protocol: (§1) Spinal cord slice preparation. As previously reported^39, a portion of the lumbar spinal cord (L4-L5) was removed from young mice (3-4 week old) under urethane anesthesia (1.5-2.0 g/kg, i.p.) and transverse spinal cord slices were cut (600 μm) on a vibrating microslicer. The slices were perfused with Kreb's solution (8 ml/min) for >2 h prior to experiments. Some slices were stimulated with TNF-α (10 ng/ml, 5 min), the slices were fixed with 4% paraformaldehyde for 1 h, and processed pERK immunohistochemistry using thin sections (15 μm)^13.
(§2) Patch clamp recordings in spinal slices. Whole cell patch-clamp recordings were performed in lamina II neurons in voltage clamp mode^39. After establishing the whole-cell configuration, neurons were held at the holding potentials of −70 mV for recording spontaneous excitatory postsynaptic current (sEPSC). NMDA-induced currents were recorded by bath application of NMDA (50 μM, Sigma) at the holding potential of −50 mV. Membrane currents were amplified with an Axopatch 200A amplifier (Axon Instruments) in voltage-clamp mode. pCLAMP 6 was used and Mini Analysis (Synaptosoft Inc.) software to store and analyze the data. Those cells showing >5% changes from the baseline levels were reagrded as responding ones^24.
(§3) Resolvins were also used for intraplantar injection. RvD1 or RvE1 was injected into the plantar surface of a hindapaw [20 ng, 20 μl , in 1% ethanol (Supplementary FIG. 5a, 5b) or in 10% ethanol (FIG. 2e, Supplementary FIG. 1d)]. DRG cultures were incubated with RvE1 (10 ng/ml, 0.1% ethanol in culture medium) and perfused spinal cord slices with RvE1 (1 ng/ml, in 0.01% ethanol and Kreb's solution).
(§4) Perfusion of spinal cord slices: Spinal cord slices were incubated with chemerin (100 ng/ml, in Kreb's solution), TNF-α (10 ng/ml, in Kreb's solution), capsaicin (100 nM, in 0.01% DMSO and Kreb's solution), TRPV1 antagonist capsazepine (Sigma, 10 μM, in 0.01% DMSO and Kreb's solution), pertussix toxin (0.5 μg/ml, in Kreb's solution), and MEK inhibitor PD98059 and U0126 (CalBiochem, 1 μM, in 0.01% DMSO and Kreb's solution). For pertussix toxin treatment, spinal cord slices were incubated with the toxin for 3 h before stimulation.

lamina II neurons = assay: Patch clamp recording of sEPSCs in lamina II neurons of spinal cord slices; format: cell-based, mice
Protocol: as §1, §2, §3, §4

In the case of `CC[C@@H](O)/C=C/C=C\C[C@@H](O)/C=C/C=C/C=C\[C@@H](O)CCCC(=O)O` [RvE1, 5S,12R,18R-trihydroxyeicosapentaenoic acid], the CFA-induced mechanical allodynia [1] is reported as “reduces CFA-induced mechanical allodynia in a dose-dependent manner”, the “TNF-α-induced potentiation of NMDA currents (NMDAR activation)” value [2] is reported as “blocked this potentiation” and the “capsaicin-induced increases in sEPSC frequency after pretreatment with pertussis toxin” value (lamina II neurons; PTX 0.5 μg/ml for 3 h before capsaicin stimulation) is reported as “fails to inhibit”. For the same compound, the “basal synaptic transmission (sEPSC)” value (lamina II neurons; RvE1 alone, 1 ng/ml perfusion) was “did not alter basal synaptic transmission”, the “TNF-α-evoked sEPSC frequency increase” value (lamina II neurons; TNF-α 10 ng/ml, RvE1 1 ng/ml, capsazepine 10 μM) was “blocked” and the “capsaicin-evoked sEPSC frequency increase” value (lamina II neurons; capsaicin 100 nM, RvE1 1 ng/ml, chemerin 100 ng/ml, PD98059 and U0126 1 μM) was “completely blocked”.
